The results in this text go back to ChEMBL document CHEMBL1129821, “Synthesis and biological evaluation of non-polyene analogs of amphotericin B” (1997).

One test relates to Cryptococcus neoformans. Description: Minimum inhibitory concentration required for antifungal activity against Cryptococcus neoformans (271A). Format: functional.
In a further test the test system is Candida albicans. Description: Minimum inhibitory concentration required for antifungal activity against Candida albicans(16820). The format is functional.

In brackets after ≈: the same amount, converted by molar mass.

What is called MIC is the lowest concentration that inhibits growth of the organism. Read a low MIC as a more susceptible organism.

Turning to `COC(=O)[C@H]1[C@@H]2C[C@@H](O[C@@H]3O[C@H](C)[C@@H](O)[C@H](N)[C@@H]3O)/C=C/C=C/C=C/C=C/C=C/C=C/C=C/[C@H](C)[C@@H](O)[C@@H](C)[C@H](C)OC(=O)C[C@H](O)C[C@H](O)CC[C@@H](O)[C@H](O)C[C@H](O)C[C@](O)(C[C@@H]1O)O2` [AMPHOTERICIN B ME ESTER], the minimal inhibitory concentration (MIC) against Cryptococcus neoformans and against Candida albicans was 8000 µg/mL (≈ 8.53 mM) in each case.
